Laboratory results from the supplement of paper PMC9663587.

Columns and labels:
LEE011/Ribociclib [1] = compound: T1, CN(C)C(=O)c1cc2cnc(Nc3ccc(N4CCNCC4)cn3)nc2n1C1CCCC1 [LEE011/Ribociclib]; experiment: increase in dead-cell fraction, 72 h; higher = more death;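 note: breast cancer cell lines in 384-well plates, stained with Hoechst plus LIVE/DEAD far red dye and imaged, cells above an LDR intensity threshold counted dead, Hoechst-negative corpses included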
Flavopiridol [2] = compound: T2, CN1CC[C@H](c2c(O)cc(O)c3c(=O)cc(-c4ccccc4Cl)oc23)[C@H](O)C1 [Flavopiridol]; experiment: as above
[3] = compound: CC(=O)c1c(C)c2cnc(Nc3ccc(N4CCNCC4)cn3)nc2n(C2CCCC2)c1=O; experiment: as above
[4] = compound: CCN1CCN(Cc2ccc(Nc3ncc(F)c(-c4cc(F)c5nc(C)n(C(C)C)c5c4)n3)nc2)CC1; experiment: as above
LEE011/Ribociclib [5] = compound: T1, LEE011/Ribociclib; experiment: GR value, 72 h; higher = faster growth (1 = untreated, <0 = killing);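 note: breast cancer and non-malignant breast epithelial lines, nine half-log doses, viable cells counted by Hoechst and LIVE/DEAD dye imaging versus time-zero plates and DMSO controls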
Flavopiridol [6] = compound: T2, Flavopiridol; experiment: as above
Neratinib/HKI272 = compound: CCOc1cc2ncc(C#N)c(Nc3ccc(OCc4ccccn4)c(Cl)c3)c2cc1NC(=O)/C=C/CN(C)C [Neratinib/HKI272]; experiment: as above
[7] = compound: CCc1cnn2c(NCc3ccc[n+]([O-])c3)cc(N3CCCC[C@H]3CCO)nc12; experiment: as above
BSJ-03-123 = compound: CC(=O)c1c(C)c2cnc(Nc3ccc(N4CCN(CCOCCOCCOCCNC(=O)COc5cccc6c5C(=O)N(C5CCC(=O)NC5=O)C6=O)CC4)cn3)nc2n(C2CCCC2)c1=O [BSJ-03-123]; experiment: as above
THZ1 = compound: CN(C)C/C=C/C(=O)Nc1ccc(C(=O)Nc2cccc(Nc3ncc(Cl)c(-c4c[nH]c5ccccc45)n3)c2)cc1 [THZ1]; experiment: as above
[8] = compound: CC(=O)c1c(C)c2cnc(Nc3ccc(N4CCNCC4)cn3)nc2n(C2CCCC2)c1=O; experiment: as above
[9] = compound: CCN1CCN(Cc2ccc(Nc3ncc(F)c(-c4cc(F)c5nc(C)n(C(C)C)c5c4)n3)nc2)CC1; experiment: as above

PDXHCI002
increase in dead-cell fraction (LEE011/Ribociclib [1]; 0.001 µM): -0.0323 | increase in dead-cell fraction (LEE011/Ribociclib [1]; 0.003162 µM): -0.0237 | increase in dead-cell fraction (LEE011/Ribociclib [1]; 0.01 µM): -0.0167 | increase in dead-cell fraction (LEE011/Ribociclib [1]; 0.03162 µM): -0.0095 | increase in dead-cell fraction (LEE011/Ribociclib [1]; 0.1 µM): -0.0015 | increase in dead-cell fraction (LEE011/Ribociclib [1]; 0.3162 µM): -0.0029 | increase in dead-cell fraction (LEE011/Ribociclib [1]; 1 µM): -0.0185 | increase in dead-cell fraction (LEE011/Ribociclib [1]; 3.162 µM): 0.0196 | increase in dead-cell fraction (LEE011/Ribociclib [1]; 10 µM): 0.0853 | increase in dead-cell fraction (Flavopiridol [2]; 0.0001 µM): -0.0222 | increase in dead-cell fraction (Flavopiridol [2]; 0.0003162 µM): 0.0027 | increase in dead-cell fraction (Flavopiridol [2]; 0.001 µM): -0.0057 | increase in dead-cell fraction (Flavopiridol [2]; 0.003162 µM): 0.0089 | increase in dead-cell fraction (Flavopiridol [2]; 0.01 µM): 0.0079 | increase in dead-cell fraction (Flavopiridol [2]; 0.03162 µM): 0 | increase in dead-cell fraction (Flavopiridol [2]; 0.1 µM): 0.0552 | increase in dead-cell fraction (Flavopiridol [2]; 0.3162 µM): 0.306 | increase in dead-cell fraction (Flavopiridol [2]; 1 µM): 0.294 | increase in dead-cell fraction ([3]; 0.0003162 µM): -0.0007 | increase in dead-cell fraction ([3]; 0.001 µM): 0.0001 | increase in dead-cell fraction ([3]; 0.003162 µM): -0.0134 | increase in dead-cell fraction ([3]; 0.01 µM): -0.0207 | increase in dead-cell fraction ([3]; 0.03162 µM): -0.015 | increase in dead-cell fraction ([3]; 0.1 µM): -0.0124 | increase in dead-cell fraction ([3]; 0.3162 µM): -0.0203 | increase in dead-cell fraction ([3]; 1 µM): -0.0173 | increase in dead-cell fraction ([3]; 3.162 µM): -0.0092 | increase in dead-cell fraction ([4]; 0.001 µM): -0.0112 | increase in dead-cell fraction ([4]; 0.003162 µM): -0.0293 | increase in dead-cell fraction ([4]; 0.01 µM): -0.0317 | increase in dead-cell fraction ([4]; 0.03162 µM): -0.0292 | increase in dead-cell fraction ([4]; 0.1 µM): -0.0036 | increase in dead-cell fraction ([4]; 0.3162 µM): 0.0233 | increase in dead-cell fraction ([4]; 1 µM): 0.161 | increase in dead-cell fraction ([4]; 3.162 µM): 0.61 | increase in dead-cell fraction ([4]; 10 µM): 0.778 | GR value (LEE011/Ribociclib [5]; 0.001 µM): 1.04 GR | GR value (LEE011/Ribociclib [5]; 0.003162 µM): 1 GR | GR value (LEE011/Ribociclib [5]; 0.01 µM): 0.903 GR | GR value (LEE011/Ribociclib [5]; 0.03162 µM): 0.925 GR | GR value (LEE011/Ribociclib [5]; 0.1 µM): 0.882 GR | GR value (LEE011/Ribociclib [5]; 0.3162 µM): 0.862 GR | GR value (LEE011/Ribociclib [5]; 1 µM): 0.828 GR | GR value (LEE011/Ribociclib [5]; 3.162 µM): 0.766 GR | GR value (LEE011/Ribociclib [5]; 10 µM): 0.51 GR | GR value (Flavopiridol [6]; 0.0001 µM): 1.02 GR | GR value (Flavopiridol [6]; 0.0003162 µM): 0.997 GR | GR value (Flavopiridol [6]; 0.001 µM): 0.973 GR | GR value (Flavopiridol [6]; 0.003162 µM): 0.997 GR | GR value (Flavopiridol [6]; 0.01 µM): 0.999 GR | GR value (Flavopiridol [6]; 0.03162 µM): 0.817 GR | GR value (Flavopiridol [6]; 0.1 µM): 0.63 GR | GR value (Flavopiridol [6]; 0.3162 µM): -0.0265 GR | GR value (Flavopiridol [6]; 1 µM): -0.156 GR | GR value (Neratinib/HKI272; 0.0003162 µM): 1.05 GR | GR value (Neratinib/HKI272; 0.001 µM): 1 GR | GR value (Neratinib/HKI272; 0.003162 µM): 1.02 GR | GR value (Neratinib/HKI272; 0.01 µM): 0.829 GR | GR value (Neratinib/HKI272; 0.03162 µM): 0.637 GR | GR value (Neratinib/HKI272; 0.1 µM): 0.54 GR | GR value (Neratinib/HKI272; 0.3162 µM): 0.378 GR | GR value (Neratinib/HKI272; 1 µM): 0.19 GR | GR value (Neratinib/HKI272; 3.162 µM): -0.143 GR | GR value ([7]; 0.0001 µM): 1.11 GR | GR value ([7]; 0.0003162 µM): 1.1 GR | GR value ([7]; 0.001 µM): 1.11 GR | GR value ([7]; 0.003162 µM): 1.05 GR | GR value ([7]; 0.01 µM): 0.744 GR | GR value ([7]; 0.03162 µM): -0.331 GR | GR value ([7]; 0.1 µM): -0.387 GR | GR value ([7]; 0.3162 µM): -0.343 GR | GR value ([7]; 1 µM): -0.365 GR | GR value (BSJ-03-123; 0.001 µM): 1.08 GR | GR value (BSJ-03-123; 0.003162 µM): 1.03 GR | GR value (BSJ-03-123; 0.01 µM): 0.992 GR | GR value (BSJ-03-123; 0.03162 µM): 0.883 GR | GR value (BSJ-03-123; 0.1 µM): 0.812 GR | GR value (BSJ-03-123; 0.3162 µM): 0.771 GR | GR value (BSJ-03-123; 1 µM): 0.565 GR | GR value (BSJ-03-123; 3.162 µM): 0.472 GR | GR value (BSJ-03-123; 10 µM): -0.0835 GR | GR value (THZ1; 0.0001 µM): 1.05 GR | GR value (THZ1; 0.0003162 µM): 1.01 GR | GR value (THZ1; 0.001 µM): 1.02 GR | GR value (THZ1; 0.003162 µM): 0.984 GR | GR value (THZ1; 0.01 µM): 0.541 GR | GR value (THZ1; 0.03162 µM): -0.0195 GR | GR value (THZ1; 0.1 µM): -0.163 GR | GR value (THZ1; 0.3162 µM): -0.148 GR | GR value (THZ1; 1 µM): -0.193 GR | GR value ([8]; 0.0003162 µM): 1.09 GR | GR value ([8]; 0.001 µM): 1.09 GR | GR value ([8]; 0.003162 µM): 1.02 GR | GR value ([8]; 0.01 µM): 0.946 GR | GR value ([8]; 0.03162 µM): 0.723 GR | GR value ([8]; 0.1 µM): 0.552 GR | GR value ([8]; 0.3162 µM): 0.427 GR | GR value ([8]; 1 µM): 0.374 GR | GR value ([8]; 3.162 µM): 0.274 GR | GR value ([9]; 0.001 µM): 1.08 GR | GR value ([9]; 0.003162 µM): 1 GR | GR value ([9]; 0.01 µM): 0.785 GR | GR value ([9]; 0.03162 µM): 0.527 GR | GR value ([9]; 0.1 µM): 0.24 GR | GR value ([9]; 0.3162 µM): 0.0121 GR | GR value ([9]; 1 µM): -0.312 GR | GR value ([9]; 3.162 µM): -0.593 GR | GR value ([9]; 10 µM): -0.688 GR
